Data published in the NIST ThermoML archive (doi:10.1016/j.jct.2010.09.009).
Numbers after ± are expanded uncertainties.

Experiment: xn = mol fraction of the nth substance listed
Details: 101 kPa, Liquid, Vibrating tube method, x2 = 0

O [water] + CCC[N+](CCC)(CCC)CCC.[Br-] showed a mass density (278.15 K) of 999.97 ± 0.05 kg/m3 and a mass density (283.15 K) of 999.7 ± 0.05 kg/m3.
